# Test results: patent US20230203043A1, “NOVEL IMIDAZOPYRAZINE DERIVATIVES” (Hoffmann-La Roche Inc., priority 2020, published 2023)
# Structures can show the parent of a compound that is named as a salt. Where two headings read alike, the source gives them in different places.
# Test system: Acinetobacter baumannii ATCC17961
# Assay: Antimicrobial susceptibility testing: 90% growth inhibitory concentration (IC90) determination in Iso-Sensitest broth, OD600 growth
# Format: cell-based
# Conditions: Acinetobacter baumannii, ATCC17961, 16 h
# How it was run: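 Twofold compound dilutions (e.g. 50 to 0.097 μM final) in Iso-Sensitest broth with ~5×10^(5) CFU/ml, 35±2 °C. OD600 read every 20 min over 16 h; IC90 from growth inhibition during logarithmic phase.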
# [1] = strain ATCC 17961, OD600 growth over 16 h, read-out: A. baumannii ATCC 17961 IC90
# [2] = read-out: A. baumannii ATCC 17961 IC90 (uM), strain ATCC 17961, OD600 growth over 16 h
IC90 [1] [µM],SMILES,IC90 [2] [µM]
0.159,"NCC(=O)N1CCN(C(=O)c2ccc(Nc3nccn4c(-c5cn(CC(F)F)nc5C(F)(F)F)cnc34)cc2Cl)CC1 [Example 6, 2-amino-1-[4-[2-chloro-4-[[3-[1-(2,2-difluoroethyl)-3-(trifluoromethyl)pyrazol-4-yl]imidazo[1,2-a]pyrazin-8-yl]amino]benzoyl]piperazin-1-yl]ethanone]",–
–,"CCc1cc(Nc2nccn3c(-c4cn(CC(F)F)nc4C(F)(F)F)cnc23)ccc1C(=O)NCC(=O)NCC1CNC1 [Example 547, N-[2-(azetidin-3-ylmethylamino)-2-oxo-ethyl]-4-[[3-[1-(2,2-difluoroethyl)-3-(trifluoromethyl)pyrazol-4-yl]imidazo[1,2-a]pyrazin-8-yl]amino]-2-ethyl-benzamide formate]",0.298
–,"N=C(N)NC[C@H](N)C(=O)NCCCNC(=O)c1ccc(Nc2nccn3c(-c4c[nH]nc4C(F)(F)F)cnc23)cc1Cl [Example 211, N-[3-[[(2S)-2-amino-3-carbamimidamidopropanoyl]amino]propyl]-2-chloro-4-[[3-[3-(trifluoromethyl)-1H-pyrazol-4-yl]imidazo[1,2-a]pyrazin-8-yl]amino]benzamide formate]",0.284
0.473,"CCc1cc(Nc2nccn3c(-c4cn(CC(F)F)nc4C(F)(F)F)cnc23)ccc1C(=O)NCC(=O)NCCN [Example 729, N-[2-(2-aminoethylamino)-2-oxo-ethyl]-4-[[3-[1-(2,2-difluoroethyl)-3-(trifluoromethyl)pyrazol-4-yl]imidazo[1,2-a]pyrazin-8-yl]amino]-2-ethyl-benzamide]",–
0.222,"CCc1cc(Nc2nccn3c(-c4cn(CC#N)nc4C(F)(F)F)cnc23)ccc1C(=O)NCC(=O)N1CCC(N)CC1 [Example 500, N-[2-(4-amino-1-piperidyl)-2-oxo-ethyl]-4-[[3-[1-(cyanomethyl)-3-(trifluoromethyl)pyrazol-4-yl]imidazo[1,2-a]pyrazin-8-yl]amino]-2-ethyl-benzamide formate]",–
–,"CCc1cc(Nc2nccn3c(-c4cn(CC#N)nc4C(F)(F)F)cnc23)ccc1C(=O)NCCCNC(=O)[C@@H]1CC[C@H](N)C1 [Example 483, N-(3-((1R,3S)-3-(l2-azaneyl)cyclopentane-1-carboxamido)propyl)-4-((3-(1-(cyanomethyl)-3-(trifluoromethyl)-1H-pyrazol-4-yl)imidazo[1,2-a]pyrazin-8-yl)amino)-2-ethylbenzamide formate]",0.194
–,"CCc1cc(Nc2nccn3c(-c4cn(CC(F)F)nc4C(F)(F)F)cnc23)ccc1C(=O)N1CCC12CNC2 [Example 559, (4-((3-(1-(2,2-difluoroethyl)-3-(trifluoromethyl)-1H-pyrazol-4-yl)imidazo[1,2-a]pyrazin-8-yl)amino)-2-ethylphenyl)(1,6-diazaspiro[3.3]heptan-1-yl)methanone formate]",0.398
–,"C#CC(C)n1cc(-c2cnc3c(Nc4ccc(C(=O)NCCOCCN)c(CC)c4)nccn23)c(C(F)(F)F)n1 (stereo not shown) [Example 232, N-[2-(2-aminoethoxy)ethyl]-4-[[3-[1-but-3-yn-2-yl-3-(trifluoromethyl)pyrazol-4-yl]imidazo[1,2-a]pyrazin-8-yl]amino]-2-ethylbenzamide formate]",0.124
0.834,"Cc1cc(Nc2nccn3c(-c4c[nH]nc4C(F)(F)F)cnc23)ccc1C(=O)N1CCN(C(=O)[C@H]2CNC[C@H](O)C2)CC1 (racemic) [Example 439, [2-methyl-4-[[3-[3-(trifluoromethyl)-1H-pyrazol-4-yl]imidazo[1,2-a]pyrazin-8-yl]amino]phenyl]-[4-[rac-(3R,5R)-5-hydroxypiperidine-3-carbonyl]piperazin-1-yl]methanone hydrochloride]",–
0.102,"N#CCNC(=O)c1ccc(Nc2nccn3c(-c4cn(CC#N)nc4C(F)(F)F)cnc23)cc1Cl [Example 231, 2-chloro-N-(cyanomethyl)-4-[[3-[1-(cyanomethyl)-3-(trifluoromethyl)pyrazol-4-yl]imidazo[1,2-a]pyrazin-8-yl]amino]benzamide]",–
0.11,"NCCCCCCNC(=O)c1ccc(Nc2nccn3c(-c4cn(CC(F)F)nc4C(F)(F)F)cnc23)cc1Cl [Example 826, N-(6-aminohexyl)-2-chloro-4-((3-(1-(2,2-difluoroethyl)-3-(trifluoromethyl)-1H-pyrazol-4-yl)imidazo[1,2-α]pyrazin-8-yl)amino)benzamide hydrochloride]",–
0.395,"CCc1cc(Nc2nccn3c(-c4cn(CC#N)nc4C(F)(F)F)cnc23)ccc1C(=O)NCC(=O)NCC1CCNCC1 [Example 524, 4-[[3-[1-(cyanomethyl)-3-(trifluoromethyl)pyrazol-4-yl]imidazo[1,2-a]pyrazin-8-yl]amino]-2-ethyl-N-[2-oxo-2-(4-piperidylmethylamino)ethyl] benzamide formate]",–
–,"CCc1cc(Nc2nccn3c(-c4cn(CCO)nc4C(F)(F)F)cnc23)ccc1C(=O)NCCOCCN [Example 305, N-[2-(2-aminoethoxy)ethyl]-2-ethyl-4-[[3-[1-(2-hydroxyethyl)-3-(trifluoromethyl)pyrazol-4-yl]imidazo[1,2-a]pyrazin-8-yl]amino]benzamide formate]",0.406
1.43,"Cc1cc(Nc2nccn3c(-c4c[nH]nc4C(F)(F)F)cnc23)ccc1C(=O)N1CCN(C(=O)[C@@H]2CNCC[C@@H]2O)CC1 (racemic) [Example 468, [2-methyl-4-[[3-[3-(trifluoromethyl)-1H-pyrazol-4-yl]imidazo[1,2-a]pyrazin-8-yl]amino]phenyl]-[4-[rac-(3R,4S)-4-hydroxypiperidine-3-carbonyl]piperazin-1-yl]methanone hydrochloride]",–
0.572,"NCCCC(=O)NCCCNC(=O)c1ccc(Nc2nccn3c(-c4c[nH]nc4C(F)(F)F)cnc23)cc1Cl [Example 344, N-[3-(4-aminobutanoylamino)propyl]-2-chloro-4-[[3-[3-(trifluoromethyl)-1H-pyrazol-4-yl]imidazo[1,2-a]pyrazin-8-yl]amino]benzamide formate]",–
–,"CCc1cc(Nc2nccn3c(-c4cn(CC#N)nc4C(F)(F)F)cnc23)ccc1C(=O)NCC(=O)NC1C2CNCC21 (stereo not shown) [Example 511, N-[2-(3-azabicyclo[3.1.0]hexan-6-ylamino)-2-oxo-ethyl]-4-[[3-[1-(cyanomethyl)-3-(trifluoromethyl)pyrazol-4-yl]imidazo[1,2-a]pyrazin-8-yl]amino]-2-ethyl-benzamide formate]",0.295
–,"CCc1cc(Nc2nccn3c(-c4cn(CC#N)nc4C(F)(F)F)cnc23)ccc1C(=O)NCC(=O)N1CC(N)C1 [Example 716, N-[2-(3-aminoazetidin-1-yl)-2-oxo-ethyl]-4-[[3-[1-(cyanomethyl)-3-(trifluoromethyl)pyrazol-4-yl]imidazo[1,2-a]pyrazin-8-yl]amino]-2-ethyl-benzamide formate]",0.426
1.03,"CCc1cc(Nc2nccn3c(-c4cn(COC)nc4C(F)F)cnc23)ccc1C(=O)N1CCN(C(=O)[C@@H](C)N)CC1 [Example 778, (R)-2-amino-1-(4-(4-((3-(3-(difluoromethyl)-1-(methoxymethyl)-1H-pyrazol-4-yl)imidazo[1,2-a]pyrazin-8-yl)amino)-2-ethylbenzoyl)piperazin-1-yl)propan-1-one]",–
1.56,"NC12CC(NC(=O)c3ccc(Nc4nccn5c(-c6c[nH]nc6C(F)(F)F)cnc45)cc3Cl)(C1)C2 [Example 105, N-(3-amino-1-bicyclo[1.1.1]pentanyl)-2-chloro-4-[[3-[3-(trifluoromethyl)-1H-pyrazol-4-yl]imidazo[1,2-a]pyrazin-8-yl]amino]benzamide]",–
–,"O=C(c1ccc(Nc2nccn3c(-c4c[nH]nc4C(F)(F)F)cnc23)cc1Cl)N1CCN(C(=O)C2CCNCC2)CC1 [Example 401, [2-chloro-4-[[3-[3-(trifluoromethyl)-1H-pyrazol-4-yl]imidazo[1,2-a]pyrazin-8-yl]amino]phenyl]-[4-(piperidine-4-carbonyl)piperazin-1-yl]methanone formate]",0.273
0.269,"NCC(=O)N1CC2(C1)CN(C(=O)c1ccc(Nc3nccn4c(-c5c[nH]nc5C(F)(F)F)cnc34)cc1Cl)C2 [Example 658, 2-amino-1-(6-(2-chloro-4-((3-(3-(trifluoromethyl)-1H-pyrazol-4-yl)imidazo[1,2-a]pyrazin-8-yl)amino)benzoyl)-2,6-diazaspiro[3.3]heptan-2-yl)ethan-1-one]",–
–,"N[C@@H]1CN[C@H](C(=O)N2CCN(C(=O)c3ccc(Nc4nccn5c(-c6c[nH]nc6C(F)(F)F)cnc45)cc3Cl)CC2)C1 [Example 295, [4-[(2S,4S)-4-aminopyrrolidine-2-carbonyl]piperazin-1-yl]-[2-chloro-4-[[3-[3-(trifluoromethyl)-1H-pyrazol-4-yl]imidazo[1,2-a]pyrazin-8-yl]amino]phenyl] methanone formate]",0.473
–,"N#CCn1cc(-c2cnc3c(Nc4ccc(C(=O)N5CCN(C(=O)N[C@@H]6CCNC6)CC5)c(Cl)c4)nccn23)c(C(F)(F)F)n1 [Example 288, 4-[2-chloro-4-[[3-[1-(cyanomethyl)-3-(trifluoromethyl)pyrazol-4-yl]imidazo[1,2-a]pyrazin-8-yl]amino]benzoyl]-N-[(3R)-pyrrolidin-3-yl]piperazine-1-carboxamide formate]",0.233
–,"O=C(c1ccc(Nc2nccn3c(-c4c[nH]nc4C(F)(F)F)cnc23)cc1Cl)N1CCN(C(=O)[C@@H]2C[C@@H](O)CN2)CC1 [Example 448, [2-chloro-4-[[3-[3-(trifluoromethyl)-1H-pyrazol-4-yl]imidazo[1,2-a]pyrazin-8-yl]amino]phenyl]-[4-[(2S,4R)-4-hydroxypyrrolidine-2-carbonyl]piperazin-1-yl]methanone formate]",0.235
–,"CCc1cc(Nc2nccn3c(-c4c[nH]nc4C(F)(F)F)cnc23)ccc1C(=O)NCCCNC(=O)[C@@H](C)N [Example 677, (R)-N-(3-(2-aminopropanamido)propyl)-2-ethyl-4-((3-(3-(trifluoromethyl)-1H-pyrazol-4-yl)imidazo [1,2-a]pyrazin-8-yl)amino)benzamide formate]",0.317
